{"source": "paper PMC5997768", "about": "(2018)", "tested_on": "rats with CCI", "details": "rat, in vivo, iv", "data": [{"molecule": "C=CC[N+]1(C)CC[C@]23c4c5ccc(O)c4O[C@H]2C(=O)CC[C@@]3(O)[C@H]1C5", "note": "(some centres unmarked) [NLXM, naloxone methiodide]", "values": [{"measurement": "Effect on FF3-induced analgesia (PPT) in ipsilateral limbs", "result": "abolished"}, {"measurement": "Effect on PPT in contralateral paws", "result": "No changes were observed"}]}]}
